Active and inactive are the calls of the source. The calls are words filed in the database; no cut-off is given here. Where a SMILES comes first, the peptide text is derived from it.
Tests used:
Rattus norvegicus [1] = assay: (§1) Protection against Wistar rat model of tourniquet-induced limb ischemia/reperfusion injury-induced oxidative stress assessed as skeletal muscle MDA level at 20 mg/kg, ip dosed 15 mins before and after 3 hrs of ischemia followed by 20 mg/kg, ip compound treatment for 1 hr before and after 4 hrs of reperfusion (reference value: 45.78 +/- 4.33 nmol/g); type: functional
Rattus norvegicus [2] = assay: Antithrombotic activity in Wistar rat model of thread-induced arterial thrombosis assessed as thrombus weight at 5 umol/kg measured after 2 to 3 hrs (reference value: 42.1 +/- 3.2 mg)
Rattus norvegicus [3] = assay: as §1, with “SOD activity per mg protein” for “MDA level”, “0.41” for “45.78”, “0.09 U)” for “4.33 nmol/g)”; type: functional
Rattus norvegicus [4] = assay: (§2) Anti-inflammatory activity in Wistar rat model of tourniquet-induced limb ischemia/reperfusion injury assessed as serum TNF-alpha level at 20 mg/kg, ip dosed 15 mins before and after 3 hrs of ischemia followed by 20 mg/kg, ip compound treatment for 1 hr before and after 4 hrs of reperfusion by ELISA (reference value: 185.1 +/- 23.5 pg/ml); type: functional
Rattus norvegicus [5] = assay: as §1, with “CAT activity per mg protein” for “MDA level”, “25.64” for “45.78”, “5.29 U)” for “4.33 nmol/g)”; type: functional
PC-12 [6] = assay: Antioxidant activity in rat PC12 cells assessed as scavenging of H2O2/Fe2+ ion-induced hydroxyl radical by measuring increase in cell survival at 12.5 to 200 uM preincubated for 1 hr followed by H2O2/Fe2+ ion addition measured after 1 hr by MTT assay; type: functional, cell-based
PC-12 [7] = assay: Antioxidant activity in rat PC12 cells assessed as scavenging of SNAP-induced NO radical by measuring increase in cell survival at 12.5 to 200 uM preincubated for 1 hr followed by SNAP addition measured after 2 hrs by MTT assay; type: functional, cell-based
PC-12 [8] = assay: Antioxidant activity in rat PC12 cells assessed as scavenging of hypoxanthine/xanthine oxidase-induced O2 radical by measuring increase in cell survival at 12.5 to 200 uM preincubated for 1 hr followed by hypoxanthine/xanthine oxidase addition by MTT assay; type: functional, cell-based
Rattus norvegicus [9] = assay: as §2, with “IL-6” for “TNF-alpha”, “580.3” for “185.1”, “95.2” for “23.5”; type: functional
Rattus norvegicus [10] = assay: as §1, with “GSH” for “MDA”, “0.82” for “45.78”, “0.19 umol/g)” for “4.33 nmol/g)”; type: functional
Mus musculus = assay: Anti-inflammatory activity in ICR mouse assessed as inhibition of xylene-induced ear edema at 1 umol/kg, po pretreated for 30 mins followed by xylene administration measured after 2 hrs relative to control; type: functional

Row | SMILES | Activity (Rattus norvegicus [1]) [nmol/g] | Activity (Rattus norvegicus [2]) [mg] | Activity (Rattus norvegicus [3]) [U/mg] | Activity (Rattus norvegicus [4]) [pg/mL] | Activity (Rattus norvegicus [5]) [U/mg] | Activity (PC-12 [6]) | Activity (PC-12 [7]) | Activity (PC-12 [8]) | Activity (Rattus norvegicus [9]) [pg/mL] | Activity (Rattus norvegicus [10]) [µmol/g] | inhibition in vivo at 1 µmol/kg (Mus musculus) [%]
1 | COC(=O)COc1ccc(/C=C/C(=O)CC(=O)/C=C/c2ccc(OC)c(OC)c2)cc1OC | 30.12 | 40.1 | 0.58 | 160.7 | 42.4 | Active | inactive | inactive | 472.5 | 1.55 | 25.1
2 | CC(=O)Oc1ccccc1C(=O)O [ASPIRIN] | – | 28.5 | – | – | – | – | – | – | – | – | 50.3
3 | COc1cc(/C=C/C(=O)CC(=O)/C=C/c2ccc(OCC(=O)N[C@@H](CCCCN)C(=O)O)c(OC)c2)ccc1O | – | 34.5 | – | – | – | – | – | – | – | – | 41.1
4 | C[C@H](NC(=O)[C@@H]1CCCN1)C(=O)N[C@@H](CCCCN)C(=O)O (H-Pro-Ala-Lys-OH) | – | 32.8 | – | – | – | – | – | – | – | – | –
5 | COC(=O)COc1ccc(/C=C/C(=O)CC(=O)/C=C/c2ccc(O)c(OC)c2)cc1OC | 32.47 | 39.7 | 0.64 | 155.4 | 44.6 | Active | inactive | inactive | 450.8 | 1.41 | 23.3
6 | COc1ccc(/C=C/C(=O)CC(=O)/C=C/c2ccc(OCC(=O)N[C@@H](CCCCN)C(=O)O)c(OC)c2)cc1OC | – | 38.3 | – | – | – | – | – | – | – | – | 39.3

— ChEMBL document CHEMBL3826963, “Pharmacological protection of mitochondrial function mitigates acute limb ischemia/reperfusion injury” (Bioorg Med Chem Lett, 2016)
